Results published in patent US10294302B2, “Therapeutic method and medicament for HTLV-1 associated myelopathy” (priority 2012, dated 2019).
Like-named read-outs stand apart in the source and are kept apart here.

B1: Mogamulizumab (antibody, chains of the INN, looked up, V domains shown)
VH: EVQLVESGGDLVQPGRSLRLSCAASGFIFSNYGMSWVRQAPGKGLEWVATISSASTYSYYPDSVKGRFTISRDNAKNSLYLQMNSLRVEDTALYYCGRHSDGNFAFGYWGQGTLVTVSS
VL: DVLMTQSPLSLPVTPGEPASISCRSSRNIVHINGDTYLEWYLQKPGQSPQLLIYKVSNRFSGVPDRFSGSGSGTDFTLKISRVEAEDVGVYYCFQGSLLPWTFGQGTKVEIK
notes: anti-human CCR4 humanized antibody, manufactured by Kyowa Hakko Kirin

Legend:
[1] = tested on: PBMCs derived from HAM patients; test: Spontaneous cell proliferation of PBMCs by 3H-thymidine up-take; format: cell-based, human; conditions: for cell proliferation compared to non-drug treatment: Example 3, FIGS. 3A and 3B
Source text: PBMCs of HAM patients and asymptomatic HTLV-1 carriers (AC) were isolated from peripheral bloods that were collected from 9 HAM patients and 8 asymptomatic HTLV-1 carriers by Ficoll density gradient centrifugation, and frozen and stored in liquid nitrogen until assay. The isolated PBMCs were suspended in an RPMI1640 medium containing 10% fetal bovine serum (hereinafter, abbreviated to FBS), 1% penicillin and 1% streptomycin (manufactured by Wako Pure Chemical Industries, Ltd.) (hereinafter, abbreviated to RPMI medium) without proliferation stimulation, and seeded at a density of 1×10^5 cells/100 μL/well in a 96-well round bottom plate. A well added with 1 μg/mL of prednisolone (PSL) was prepared as a positive control, and wells added with 0-10 μg/mL of anti-human CCR4 chimeric antibody KM2760 were prepared as a subject antibody. Cultivation was performed under the conditions of 37° C. and 5% CO2 for 6 days.
After cultivation, 1 μCi ^3H-thymidine was added to each well, and further cultured for 16 hours. After cultivation, the cells were recovered, and specific radioactivity was measured using a liquid scintillation counter (Micro Beta) to determine cell proliferation rate (%) (FIGS. 1A, 1B). The up-take of ^3H-thymidine in the non-drug-treated well was taken as 100%, and the ratio was determined.
In the same manner as in Example 1, PBMCs isolated from the peripheral blood of HAM patient were seeded in a 96-well bottom plate. A well added with 0.1 or 1 μg/mL of prednisolone and wells added with 0.1 μg/mL prednisolone+0.01-10 μg/mL of anti-human CCR4 chimeric antibody KM2760 were prepared to perform cultivation.
For cell proliferation assay by ^3H-thymidine up-take, ^3H-thymidine was added at 6 days after cultivation in the same manner as in Example 1, and further cultured for 16 hours. Further, the amount of HTLV-1 proviral DNA was determined at 7 days after cultivation in the same manner as in Example 2.
(§1) In all assays, the proliferation rate (FIGS. 3A and 3B) or the amount of HTLV-1 proviral DNA (FIGS. 3C and 3D) was represented as a percentage, when the well treated with no drug was taken as 100%.
(§2) Inhibitory effects of anti-human CCR4 chimeric antibody KM2760 and anti-human CCR4 humanized antibody Poteligeo® (manufactured by Kyowa Hakko Kirin co., Ltd.) on spontaneous cell proliferation, the amount of HTLV-1 provirus DNA, and the cytokine production in PBMCs of HAM patients (N=11) were examined in the same manner as in Examples 1, 2, and 4.

[2] = tested on: PBMCs derived from HAM patients; test: Actual number of cells after cultivation of PBMCs; format: cell-based, human; conditions: 1 μg/mL; 7 days after cultivation; FIG. 1C
Method: In the same manner, PBMCs derived from HAM patients were cultured by addition of 1×10^−6 μg/mL-10 μg/mL of KM2760, and at 7 days after cultivation, the actual number of cells was counted (FIG. 1C).

[3] = tested on: HTLV-1 proviral DNA in PBMCs derived from HAM patients; test: Amount of HTLV-1 proviral DNA in PBMCs by real time-PCR; format: cell-based
Method: Then, genomic DNAs were extracted from PBMCs of HAM patients using phenol/chloroform.
(§3) Real time-polymerase chain reaction (hereinafter, abbreviated to PCR) was performed using the extracted genomic DNA as a template, and TaqMan probes for HTLV-1 pX region and human β-actin, and a primer set of each gene.
(§4) As a standard sample of HTLV-1 pX, a genomic DNA derived from HTLV-1 infected rat TARL2 cell line where 1 copy/cell of HTLV-1 pX region was integrated was used, and as a standard sample of β-actin, a genomic DNA derived from PBMC of a normal person was used to perform PCR at the same time and to obtain a standard curve. The copy numbers of pX and β-actin of each sample were calculated using the standard curve, and the amount of HTLV-1 proviral DNA was determined by the following Equation (FIGS. 2A and 2B). Amount of HTLV-1 proviral DNA: copy number of HTLV-1(pX)/100 PBMC cells=(copy number of pX)/(copy number of β-actin/2)×100
Cultivation was performed in the same manner, and the absolute amount of the HTLV-1 proviral DNA per well was determined (FIGS. 2C and 2D).
In the same manner as above, 1×10^−6 μg/mL-10 μg/mL of KM2760 were added to culture PBMCs derived from HAM patients, and at 7 days after cultivation, the amounts of HTLV-1 proviral DNA were determined (FIG. 2E).
as §1

[4] = tested on: HTLV-1 proviral DNA in PBMCs derived from asymptomatic HTLV-1 carriers (ACs); test: Amount of HTLV-1 proviral DNA in PBMCs by real time-PCR (asymptomatic carriers); format: cell-based; conditions: 1 μg/mL; 7 days; AC N=8, FIG. 2F
Method: The amount of HTLV-1 proviral DNA was quantified in accordance with the method described in Yamano et al (Blood, 2002; 99: 88-94) and Nagai et al (J. Infectious Diseases; 2001; 183: 197-205).
At 7 days after cultivation, cells were recovered from each well, and the recovered cells were suspended in a buffer containing 50 mM Tris-HCl (pH 8.0), 20 mM EDTA, 0.1 M NaCl and 1% SDS (hereinafter, referred to as lysis buffer), and then 150 μg/mL of proteinase K (manufactured by Wako Pure Chemical Industries, Ltd.) was added thereto, followed by shaking at 55° C. overnight. Then, genomic DNAs were extracted from PBMCs of HAM patients using phenol/chloroform.
as §3
as §4, with “Amount of HTLV-1 proviral DNA: copy number of HTLV-1(pX)/100 PBMC cells=(copy number of pX)/(copy number of β-actin/2)×100” left out

[5] = tested on: IFN-γ production in PBMCs of HAM patients; test: IFN-γ production in PBMC culture supernatant (Cytometric Bead Array); format: cell-based, human; conditions: 7 days culture; combination: 0.1 μg/mL PSL+0.01 μg/mL-10 μg/mL KM2760 versus KM2760 alone
Method: (§5) In order to examine the inhibitory effect of anti-human CCR4 antibody and adrenocorticosteroid drug on inflammatory cytokine production in PBMCs of HAM patients, PBMCs of HAM patients were cultured, and the concentrations of IFN-γ, TNF-α, IL-2, IL-6 and IL-10 in the culture supernatants were measured.
(§6) PBMCs of HAM patients were cultured for 7 days in the same manner as in Example 2, and the culture supernatants were recovered after cultivation. The concentrations of the cytokines were measured using kits for measuring cytokine concentrations (all manufactured by BD Biosciences), Human IFNγ Flex kit (cat. 560111), Human TNFα Flex kit (cat. 560122), Human IL-6 Flex kit (cat. 558276), Human IL-2 Flex kit (cat. 558270) and Human IL-10 Flex kit (cat. 558274) by BD™ Cytometric Bead Array (CBA) (FIGS. 4A, 4B, 5A, 5B, 6A, 6B, 7A, 7B, 8A and 8B).
as §2

[6] = tested on: TNF-α production in PBMCs of HAM patients; test: TNF-α production in PBMC culture supernatant (Cytometric Bead Array); format: cell-based, human; conditions: 7 days culture; combination: 0.1 μg/mL PSL+0.01 μg/mL-10 μg/mL KM2760 versus KM2760 alone
Method: as §5, §6, §2

[7] = tested on: IL-6 production in PBMCs of HAM patients; test: IL-6 production in PBMC culture supernatant (Cytometric Bead Array); format: cell-based, human; conditions: 7 days culture; combination: 0.1 μg/mL PSL+0.01 μg/mL-10 μg/mL KM2760 versus KM2760 alone
Method: as §5, §6, §2

[8] = tested on: IL-2 production in PBMCs of HAM patients; test: IL-2 production in PBMC culture supernatant (Cytometric Bead Array); format: cell-based, human; conditions: 7 days culture; combination: 0.1 μg/mL PSL+0.01 μg/mL-10 μg/mL KM2760 versus KM2760 alone
Method: as §5, §6, §2

[9] = cited from earlier work
[10] = tested on: IL-10 production in PBMCs of HAM patients; test: IL-10 production in PBMC culture supernatant (Cytometric Bead Array); format: cell-based, human; conditions: 7 days culture; combination: 0.1 μg/mL PSL+0.01 μg/mL-10 μg/mL KM2760 versus KM2760 alone
Method: as §5, §6, §2

[11] = PSL 1 μg/mL, antibody up to 10 μg/mL, 7 days, compared to non-drug treatment

| Molecule | cell proliferation compared to non-drug treatment ([1]; 0.1 μg/mL) | cell proliferation compared to non-drug treatment ([1]; 1 μg/mL) [%] | inhibition at 1 µg/mL ([1]; Homo sapiens, PBMC, 1 μg/mL, 6 days + 16 h 3H-thymidine, 9 HAM patients, FIG. 1B, read-out: cell proliferation inhibition compared to non-drug treatment) [%] | number of cells compared to non-drug treatment [2] | effect on the amount of proviral DNA (in words) ([3]; 1 μg/mL, 7 days, FIG. 2E) | absolute amount of HTLV-1 proviral DNA of each well compared to non-drug treatment ([3]; 1 μg/mL, Example 3, FIGS. 3E and 3F) | absolute amount of HTLV-1 proviral DNA per well, fraction of non-drug treatment ([3]; 1 μg/mL, FIGS. 2C and 2D) | effect on the amount of HTLV-1 proviral DNA (in words) ([3]; 0.1 or 1 μg/mL, Example 3) | effect on the amount of HTLV-1 proviral DNA (in words) [3, 11] | effect on the amount of proviral DNA (in words) [4] | inhibition of IFN-γ production (in words) [5] | inhibition of TNF-α production (in words) [6] | inhibition of IL-6 production (in words) [7] | inhibition of IL-2 production (in words) [8] | blood concentration ([9]; oral administration of 50 mg to a clinical patient) | blood concentration ([9]; oral administration of a low dose of 5 mg to a clinical patient) | inhibition of spontaneous cell proliferation (in words) ([1]; antibody 0-10 μg/mL, 3H-thymidine up-take) | inhibition of IL-10 production (in words) [10] |
| --- | --- | --- | --- | --- | --- | --- | --- | --- | --- | --- | --- | --- | --- | --- | --- | --- | --- | --- |
| C[C@]12C=CC(=O)C=C1CC[C@@H]1[C@@H]2[C@@H](O)C[C@@]2(C)[C@H]1CC[C@]2(O)C(=O)CO [PSL, prednisolone] | approximately 70% | ~50 | ~50 | approximately 50% | almost didn't reduce the amount of proviral DNA | approximately 50% | ⅓ | almost didn't reduce the amount of HTLV-1 proviral DNA | did not show the effect of reducing the amount of HTLV-1 proviral DNA | almost didn't reduce the amount of proviral DNA | inhibited the production of all cytokines | inhibited the production of all cytokines | inhibited the production of all cytokines | inhibited the production of all cytokines | approximately 1 μg/mL | approximately 0.1 μg/mL |  |  |
| B1 |  |  |  |  |  |  |  |  | inhibited |  | inhibited | inhibited | inhibited | inhibited |  |  | inhibited | inhibited |
